According to the supplement of paper PMC13380429:

Assays:
Conditions in all cases: 72 h
Caco-2 [1] = experiment: relative viability EC50 (midpoint between 100% and the lowest measured viability); higher = less toxic
HepG2 [2] = experiment: as above
Vero E6 [3] = experiment: as above
U2OS [4] = experiment: as above
Calu-3 [5] = experiment: as above
Caco-2 [6] = experiment: drug sensitivity score (DSS) for viability; higher = more toxic; extreme values may be limits of the assay
HepG2 [7] = experiment: as above
Vero E6 [8] = experiment: as above
U2OS [9] = experiment: as above
Calu-3 [10] = experiment: as above
Caco-2 [11] = experiment: cell viability relative to DMSO; higher = less toxic
HepG2 [12] = experiment: as above
Vero E6 [13] = experiment: as above
U2OS [14] = experiment: as above
Calu-3 [15] = experiment: as above

SMILES	relative viability EC50 (Caco-2 [1]) [µM]	relative viability EC50 (HepG2 [2]) [µM]	relative viability EC50 (Vero E6 [3]) [µM]	relative viability EC50 (U2OS [4]) [µM]	relative viability EC50 (Calu-3 [5]) [µM]	drug sensitivity score (Caco-2 [6])	drug sensitivity score (HepG2 [7])	drug sensitivity score (Vero E6 [8])	drug sensitivity score (U2OS [9])	drug sensitivity score (Calu-3 [10])	cell viability (Caco-2 [11]; 1 nM) [%]	cell viability (Caco-2 [11]; 10 nM) [%]	cell viability (Caco-2 [11]; 100 nM) [%]	cell viability (Caco-2 [11]; 1000 nM) [%]	cell viability (Caco-2 [11]; 10000 nM) [%]	cell viability (HepG2 [12]; 1 nM) [%]	cell viability (HepG2 [12]; 10 nM) [%]	cell viability (HepG2 [12]; 100 nM) [%]	cell viability (HepG2 [12]; 1000 nM) [%]	cell viability (HepG2 [12]; 10000 nM) [%]	cell viability (Vero E6 [13]; 1 nM) [%]	cell viability (Vero E6 [13]; 10 nM) [%]	cell viability (Vero E6 [13]; 100 nM) [%]	cell viability (Vero E6 [13]; 1000 nM) [%]	cell viability (Vero E6 [13]; 10000 nM) [%]	cell viability (U2OS [14]; 1 nM) [%]	cell viability (U2OS [14]; 10 nM) [%]	cell viability (U2OS [14]; 100 nM) [%]	cell viability (U2OS [14]; 1000 nM) [%]	cell viability (U2OS [14]; 10000 nM) [%]	cell viability (Calu-3 [15]; 1 nM) [%]	cell viability (Calu-3 [15]; 10 nM) [%]	cell viability (Calu-3 [15]; 100 nM) [%]	cell viability (Calu-3 [15]; 1000 nM) [%]	cell viability (Calu-3 [15]; 10000 nM) [%]
CN(C)C/C=C/C(=O)Nc1ccc(C(=O)Nc2cccc(Nc3ncc(Cl)c(-c4c[nH]c5ccccc45)n3)c2)cc1 [THZ1]	0.185	0.0248	0.811	0.11	0.107	13.5	30.2	11.5	22.6	14.4	95.6	104	88.9	36.9	37	108	87.2	10	5.4	4.8	103	101	99.4	44.4	11.4	97	102	58.2	6.2	4.9	96.1	97	71.8	39.6	40.7
COc1cc2c(NC3CCN(C)CC3)nc(N3CCCN(C)CC3)nc2cc1OCCOCCN(C)C [UNC0321]	> 10	> 10	> 10	> 10	> 10	0	0	0	0	0	105	94	102	102	100	99.9	107	105	102	102	99.7	104	104	97	96.9	100	100	98.3	102	97.6	89.5	107	99	99.2	97
CC(C)(C)C#Cc1cc(N(C(=O)[C@H]2CC[C@H](C)CC2)[C@H]2CC[C@@H](O)CC2)c(C(=O)O)s1 [VX-222]	> 10	> 10	> 10	> 10	> 10	0	0	0	0	0	103	114	102	99.8	101	98.7	101	91.7	96.2	101	104	96.1	106	99.8	102	105	106	98.2	105	97.6	92.5	94.9	99.2	99.3	104
